Literature values, collected in patent US20120046286A1, “Novel Compounds” (priority 2009, published 2012).

Tests used:
neutrophils [1] = tested on: neutrophils
neutrophils [2] = settings: treatment of neutrophils; Thelen et al. 1994

Row | SMILES | effect on neutrophil migration and superoxide release (neutrophils [1]) | effect on fMLP-induced respiratory burst response (neutrophils [2])
1 | O=c1cc(N2CCOCC2)oc2c(-c3ccccc3)cccc12 [LY294002] | block neutrophil migration and superoxide release | 
2 | COC[C@H]1OC(=O)c2coc3c2[C@@]1(C)C1=C(C3=O)[C@@H]2CCC(=O)[C@@]2(C)C[C@H]1OC(C)=O [wortmannin] | block neutrophil migration and superoxide release | prevents the fMLP-induced respiratory burst response
